ChEMBL document CHEMBL4334535, “Novel Pyrazolyl-dihydroisoquinolines as Positive Allosteric Modulator of the Dopamine D1 Receptor” (ACS Med Chem Lett, 2020)
Calls of active or inactive are those of the source. The calls are words filed in the database; no cut-off is given here.

Assays:
D(1A) dopamine receptor [1] = biological target: T1, D(1A) dopamine receptor (Homo sapiens, UniProt P21728); experiment: Potentiation of dopamine-induced positive allosteric modulation of human D1 receptor expressed in HEK293 cells assessed as cAMP production measured after 60 to 90 mins by HTRF assay relative to control; type: functional, cell-based; set-up: concentration or dose not given beside the values
T1 sequence (P21728 whole entry): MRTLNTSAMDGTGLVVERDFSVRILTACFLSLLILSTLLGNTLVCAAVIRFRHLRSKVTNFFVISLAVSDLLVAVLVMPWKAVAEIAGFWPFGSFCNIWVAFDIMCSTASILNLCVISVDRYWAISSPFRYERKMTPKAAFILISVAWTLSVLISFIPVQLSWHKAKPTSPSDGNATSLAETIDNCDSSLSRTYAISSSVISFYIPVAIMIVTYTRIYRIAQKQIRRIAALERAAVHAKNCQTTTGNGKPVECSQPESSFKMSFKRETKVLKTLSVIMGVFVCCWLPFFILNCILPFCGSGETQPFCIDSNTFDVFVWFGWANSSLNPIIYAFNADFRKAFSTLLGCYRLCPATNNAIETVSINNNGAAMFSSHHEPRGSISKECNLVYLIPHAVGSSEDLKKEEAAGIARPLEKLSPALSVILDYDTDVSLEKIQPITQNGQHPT

Mus musculus = experiment: Increase in basal locomotor activity in transgenic knockout C57BL/6 mouse expressing human D1 receptor mouse at 10 ml/kg, po measured every 10 mins for 60 mins by automated system analysis; type: functional, organism-based
D(1A) dopamine receptor [2] = biological target: T1, D(1A) dopamine receptor; experiment: Positive allosteric modulation of human D1 receptor expressed in HEK293 assessed as cAMP production incubated for 60 mins by HTRF assay; type: functional, cell-based

| Compound | Activity (D(1A) dopamine receptor [1]) [%] | Activity (Mus musculus) | EC50 (D(1A) dopamine receptor [2]) [nM] |
| --- | --- | --- | --- |
| C[C@H]1c2cccc(-c3cn[nH]c3)c2C[C@H](CO)N1C(=O)Cc1ccc(F)cc1Cl | 77.1 |  |  |
| C[C@H]1c2cccc(-c3cn[nH]c3)c2C[C@H](CO)N1C(=O)Cc1cc(F)ccc1Cl | 79.8 |  |  |
| C[C@H]1c2cccc(-c3cnn(C4CC4)c3)c2C[C@H](CO)N1C(=O)Cc1c(Cl)cccc1Cl | 88.1 |  |  |
| C[C@H]1c2cccc(-c3cn[nH]c3)c2C[C@H](CO)N1C(=O)Cc1c(F)cccc1F | 78.1 |  |  |
| CCn1cc(-c2cccc3c2C[C@H](CO)N(C(=O)Cc2c(Cl)cccc2Cl)[C@H]3C)cn1 | 91.2 |  |  |
| C[C@H]1c2cccc(-c3cnn(C)c3)c2C[C@H](CO)N1C(=O)Cc1ccccc1Cl | 80.4 |  |  |
| C[C@H]1c2cccc(-c3cnn(C)c3)c2C[C@H](CO)N1C(=O)Cc1c(Cl)cccc1Cl | 91.4 | Active |  |
| C[C@H]1c2cccc(-c3cn[nH]c3)c2C[C@H](CO)N1C(=O)Cc1c(Cl)cccc1Cl | 75.9 | Active |  |
| C[C@H]1c2cccc(-c3cnn(CCO)c3)c2C[C@H](CO)N1C(=O)Cc1c(Cl)cccc1Cl | 79.1 |  | 18.3 |
| C[C@H]1c2cccc(-c3cn[nH]c3)c2C[C@H](CO)N1C(=O)Cc1c(F)cccc1Cl | 81.5 |  |  |
